Measurements published in patent US10052296B2, “Formulations for treating pain” (priority 2016, dated 2018).

Legend:
[1] = Stability of gabapentin in presence of different stabilizers and solvents; assay type: physicochemical; settings: GBP 9 mg/mL in acetate buffer
Experimental: GBP containing formulations were prepared by dissolving GBP to a concentration of 9 mg/mL in acetate buffer. A first set of samples were tested for assay and impurities after the initial preparation of formulation. Another set of samples were steam sterilized at 121° C. for 15 min and were tested for assay and impurity levels.

[2] = Pharmacokinetics in rats after 15 min IV infusion; settings: for AUC / Cmax: male, rat, plasma, iv
Experimental: Formulation compositions were prepared by dissolving GBP and/or APAP as indicated in Table 5 and the pH was adjusted to 5.5 using HCl or NaOH.
Blood samples were collected over a 24 h period at which time the rats were exsanguinated and blood collected for Clinical Pathology (Chemistry, Hematology and Coagulation) evaluation. Finally, all animals were necropsied (all exterior and interior cavities and organs were examined) and the site of infusion in the jugular vein, lung, liver and kidney underwent histopathologic evaluation.

[3] = tested on: mouse whole blood (male), red blood cells; assay: In vitro hemolysis test, mouse blood; settings: 15 min at 37° C.; for % Hemolysis: Mouse Blood; for interpretation of hemolysis to Red Blood Cells: mouse whole unclotted blood, concentrations tested
Experimental: (§1) APAP and GBP alone or in combination were evaluated in the in vitro hemolysis test using four biologic matrices (mouse, rat, dog and human whole unclotted blood) to determine the hemolytic potential for each on red blood cells.

[4] = tested on: rat whole blood (male), red blood cells; assay: In vitro hemolysis test, rat blood; settings: 15 min at 37° C.; for % Hemolysis: Rat Blood; for interpretation of hemolysis to Red Blood Cells: rat whole unclotted blood, concentrations tested
Experimental: as §1

[5] = tested on: beagle dog whole blood (male), red blood cells; assay: In vitro hemolysis test, dog blood; settings: 15 min at 37° C.; for % Hemolysis: Dog Blood; for interpretation of hemolysis to Red Blood Cells: dog whole unclotted blood, concentrations tested
Experimental: as §1

[6] = tested on: human (pooled) whole blood, red blood cells; assay: In vitro hemolysis test, human blood; settings: 15 min at 37° C.; for % Hemolysis: Human Blood; for interpretation of hemolysis to Red Blood Cells: human whole unclotted blood, concentrations tested
Experimental: as §1

motor control = assay: Mouse RotoRod/Acelerorod test; settings: mice, 15 minute IV infusion, 10 mg Acetaminophen/mL, 8 mg Gabapentin/mL; 1, 2, 4, 6 h
Experimental: Mouse tail flick test was conducted to evaluate test somatic pain and mouse rotorod/acelorod test evaluated behavioral changes, specifically somnolence or dizziness
In each case a positive control was administered as described below.
Male ICR mice were trained on a RotoRod/Acelerod at a continuous accelerating speed from 4 to 30 rpm/min during a time period of 4 minutes for at least 3 times on day 0. Vehicle or test article at a single dose is administered by intravenous infusion over 15 minutes starting 30 minutes before the test period starts and chlorpromazine (30 mg/kg, PO) was administered by oral gavage 60 minutes before the start of the test period. At 1, 2, 4, and 6 hours after the start of the test the mice are placed on the accelerating rotorod (increasing from 4 to 30 rpm/min during a 4 min period) and the time (seconds) the mouse remained on the rotorod was recorded. One-way ANOVA followed by Dunnett's test is applied for comparison between vehicle control and test article groups. P<0.05 is considered significant.
A baseline was measured before administration of the test agents and at 1, 2, 4 and 6 h post the start of the study. The effect of the compounds was evaluated in the standard RotoRod/Acelerorod test.

rats = assay: Toxicologic profile in rats (clinical pathology, necropsy, histopathology)
[7] = Koshy et al; cited from earlier work

1-(aminomethyl) cyclohexane acetic acid [Gabapentin]
order of stability of GBP in solvents and stabilizers [1]: PVP>Glycine>Lysine>Propylene Glycol>Sorbitol>PEG400>Glycerol>Mannitol>Sodium Oleate>β-cyclodextrin>Deoxychloic Acid>CMC>L-Glutamic Acid | stability of GBP with stabilizer ([1]; PVP at 10 mg/mL): more stable | Gabapentin PK AUC ([2]; 15 min IV infusion): 37,663 ng · h/mL | Gabapentin PK Cmax ([2]; 15 min IV infusion): 20,138 ng/mL | PK profile of GBP ([2]; in the presence of APAP): no change | % Hemolysis ([3]; GBP 2 mg/mL): 0% | % Hemolysis ([3]; GBP 4 mg/mL): 0% | % Hemolysis ([3]; GBP 8 mg/mL): 0% | interpretation of hemolysis to Red Blood Cells [3]: not considered to be hemolytic | % Hemolysis ([4]; GBP 2 mg/mL): 0% | % Hemolysis ([4]; GBP 4 mg/mL): 0% | % Hemolysis ([4]; GBP 8 mg/mL): 0% | interpretation of hemolysis to Red Blood Cells [4]: not considered to be hemolytic | % Hemolysis ([5]; GBP 2 mg/mL): 0% | % Hemolysis ([5]; GBP 4 mg/mL): 0% | % Hemolysis ([5]; GBP 8 mg/mL): 0% | interpretation of hemolysis to Red Blood Cells [5]: not considered to be hemolytic | % Hemolysis ([6]; GBP 2 mg/mL): 0% | % Hemolysis ([6]; GBP 4 mg/mL): 2% | % Hemolysis ([6]; GBP 8 mg/mL): 0% | interpretation of hemolysis to Red Blood Cells [6]: not considered to be hemolytic | decrease in motor control compared to the vehicle control (motor control): no statistically significant decrease in motor control | Clinical Pathology (Clinical Chemistry, Hematology or Coagulation Parameters) (rats; 24 h after 15 minute IV infusion): did not alter the Clinical Pathology | histopathology of tissues compared to vehicle control (rats; infusion site, lung, liver, kidney): no changes in the histopathology

CC(=O)Nc1ccc(O)cc1 [Acetaminophen]
AUC ([2]; Acetaminophen PK AUC, 15 min IV infusion): 7280 ng·h/mL | Cmax ([2]; Acetaminophen PK Cmax, 15 min IV infusion): 10100 ng/mL | AUC ([2]; Bioequivalent Range (80-125%) AUC, 15 min IV infusion, 80-125% of single-drug value): 5830 to 9110 ng·h/mL | Cmax ([2]; Bioequivalent Range (80-125%) Cmax, 15 min IV infusion, 80-125% of single-drug value): 8110 to 12700 ng/mL | % Hemolysis ([3]; APAP 5 mg/mL): 4% | % Hemolysis ([3]; APAP 10 mg/mL): 4% | interpretation of hemolysis to Red Blood Cells [3]: not considered to be hemolytic | % Hemolysis ([4]; APAP 5 mg/mL): 0% | % Hemolysis ([4]; APAP 10 mg/mL): 0% | interpretation of hemolysis to Red Blood Cells [4]: not considered to be hemolytic | % Hemolysis ([5]; APAP 5 mg/mL): 0% | % Hemolysis ([5]; APAP 10 mg/mL): 5% | interpretation of hemolysis to Red Blood Cells [5]: not considered to be hemolytic | % Hemolysis ([6]; APAP 5 mg/mL): 0% | % Hemolysis ([6]; APAP 10 mg/mL): 0% | interpretation of hemolysis to Red Blood Cells [6]: not considered to be hemolytic | decrease in motor control compared to the vehicle control (motor control): no statistically significant decrease in motor control | pH range of minimum hydrolysis of APAP [7]: 5-7
